# “And” between values parts separate entries of the source, which are not always exact repeats. Equal values may be shown once. “Also recorded” adds a separate entry of the source. Where a name gives a salt, the structure may show the parent alone. Read-outs that look alike come from different tables or passages of the source.
# Assays:
# [1] = tested on: Plasmodium cynomolgi (strain B); assay: Radical Curative Test in Rhesus Monkeys, SEATO Medical Research Laboratory; type: in vivo, Indian rhesus monkeys; settings: for Radical Curative Activity, Cures (C): Table 1, Seato Rhesus; for Cures (C): Table 8, Seato
# Experimental: Radical Curative Test in Rhesus Monkeys, SEATO Medical Research Laboratory, Bangkok,
# This test is designed to evaluate the tissue schizonticidal (radical curative) activity of test compounds. Well-conditioned Indian rhesus monkeys of either sex weighing 2-4 Kg are utilized. Plasmodium cynomolgi (strain B) sporozoites are prepared by grinding heavily infected Anopheles dirus salivary glands in 1:1 monkey serum-saline vehicle.
# Monkeys are infected by I.V. injection of 10^6 freshly isolated P. cynomolgi sporozoites on day 0. A rapidly rising parasitemia develops after a 7 to 9 day prepatient period, and administration of the test drug is initiated when the rising parasite count exceeds 5000 per mm^3 (typically day 10-12). Test drugs are administered orally (by nasogastric intubation) once daily for 7 consecutive days in aqueous solution or, if insoluble, in suspension in 0.3% methylcellulose solution. Chloroquine diphosphate (3.1 mg of base/kg orally per day) is always administered concurrently with the test drug for 7 days to eliminate blood schizonts. Thus any tissue schizonticidal activity of the test drug will always be apparent even if it lacks blood schizonticidal activity.
# A vehicle control monkey and a positive drug control (primaquine) monkey are included in each group of inoculated monkeys.
# The effect of the test drug is determined by counting blood parasites. Parasite counts are made daily through day 20, and every two days thereafter. Initially a clearance of blood parasites is observed due to the blood schizonticidal action of chloroquine. […] If there is no relapse within 20 days of the initial clearance of parasitemia, the monkey is splenectomized and its parasitemia followed for an additional 30 days. If there is no relapse within this period, the experiment is terminated and the monkey is considered "cured". Alternately, in some experiments, negative parasitemia was followed for 100 days without prior splenectomy. It has been determined that the splenectomy and non-splenectomy methods yield virtually identical results.
# Primaquine diphosphate cures over 90% of monkeys in this test system when administered at a dose of 1.3 mg/kg of salt per day for 7 days ([…]) in combination with chloroquine.
# [2] = tested on: Plasmodium berghei KBG 173; assay: animal or person; type: in vivo, young ICR/HA Swiss mice; settings: for ΔMST / Activity in words / Toxicity in words: 5 mice; for suppressive activity in words: Rane mouse test; for minimal effective dose: Plasmodium berghei, in Mus musculus; for Activity in words / Toxicity in words: Rane, 20-640 mg/kg
# Text: Blood Schizonticidal Test (Mouse), University of Miami, Rane (suppressive)
# This system is based on comparisons of responses to test compounds by Plasmodium berghei KBG 173 malaria in mice as expressed in mean survival times and the mean survival times of untreated controls. Thus, compounds noted as active produce increases in the survival times of the treated animals that are significant when compared with the survival times of untreated controls. Since an established disease is less sensitive to treatment than a disease in the early stages of development, treatment is withheld until the parasitemia is relatively high in order to insure a more reliable assay of activity and the selection of appropriate compounds for intensive preclinical studies.
# Utilizing young ICR/HA Swiss mice and a standard inoculum of Plasmodium berghei KBG 173, it is possible to produce a uniform disease fatal to 100% of untreated animals within 6 to 8 days with a mean survival time of 6.2 days. Test animals weigh from 18 to 22 grams but weight variations in any given experimental or control group are confined to 2 to 3 grams. All animals in any given test are approximately of the same age. Animals on test are housed in metal-topped plastic cages, given a standard laboratory diet and water ad libitum.
# Test animals receive an intraperitoneal injection of 0.5 ml of 1:100 dilution of heparinized heart's blood with a minimum of 90% parasitized cells (4×10^7 cells), drawn from donor mice infected one week earlier with Plasmodium berghei. The donor strain is maintained by weekly passages in separate groups of mice inoculated with a 0.5 ml of 1:500 dilution of heparinized heart's blood.
# Test compounds are administered after dissolution or suspension in peanut oil. A single dose is given subcutaneously 72 hours after the mice are infected with Plasmodium berghei. At this time a 10-15 percent parasitemia has developed; the disease is well established but has not produced sufficient debility to alter the response of the host to toxic effects of the drug on test. Since treatment is withheld for three days to permit the infection to become well established and death occurs in untreated controls within 6 to 8 days, it is believed that this system presents a candidate compound with the maximum challenge. In order to check factors such as changes in the infectivity of Plasmodium berghei or in the susceptibility of the host or to detect technical errors, a group of infected animals treated with pyrimethamine at dose levels producing definite increases in survival time is included as a positive control in every experiment.
# In each experiment test compounds are administered in graded doses. […] However, if an active drug is toxic for the host, its toxicity may become a limiting factor; continued increases in dose levels also increase the toxic effects and may result in the diminution of survival times. Deaths prior to the sixth day, when untreated controls begin to die, are regarded as non-parasitic and become the basis for the interpretation that the drug is toxic. Treated animals are kept under observation for 60 days. Survivors at the end of this period of time are considered as cured.
# An increase of 100% in mean survival time is considered the minimum effective response for a candidate compound. In calculating mean survival time, toxic deaths and 60 day survivors are not included.
# [3] = tested on: Chesson strain of P. vivax; assay: Antimalarial activity against (trophozoite-induced) infections of the Chesson strain of P. vivax in the Aotus monkey; type: in vivo
# [4] = tested on: P. berghei yoelli; assay: Causal prophylactic activity against sporozoite induced P. berghei yoelli in the mouse; type: in vivo; settings: for Cures: subcutaneous
# [5] = tested on: methemoglobin; type: in vivo, Dog
# Experimental: ^a Primaquine, Comparative Compound, or Compound X, were administered
# orally by capsule for four days on days 0, 1, 2 and 3 at a dose of 3 mg/k
# primaquine base per day or the molar equivalent.
# ^e Total methemoglobin production expressed as mg of MHb/ml of
# blood/hr for a total of 2 days after administration of the first dose.
# ^f Area under the % methemoglobin versus time curve (AUC).
# [6] = Acute toxicity in the rat by oral or intraperitoneal administration; settings: for LD50 (95% Confidence Limit): Rat
# [7] = P. cynomolgi, 0.316 mg/kg (× 7)
# [8] = text, listed as 5-(4-fluorophenoxy)-primaquine
# [9] = text, listed as 5-(4-fluorophenoxy)primaquine
# [10] = Table 1, P. berghei, Rane Mouse Test, 160 mg/kg
# [11] = oral capsule, days 0-3, 3 mg/kg primaquine base per day or molar equivalent, means differ significantly (p <.05)
smiles,measurement,setting,value
"COc1cc(NC(C)CCCN)c2ncccc2c1Oc1ccc(F)cc1 (centres unmarked) [5-(4-Fluorophenoxy)primaquine citrate, 5-(4-fluorophenoxy)-primaquine]","Radical Curative Activity, Cures (C)",[1]; [7],0/2
same,"Radical Curative Activity, Cures (C)","[1]; P. cynomolgi, 1.0 mg/kg (× 7)",1/3
same,"Radical Curative Activity, Cures (C)","[1]; P. cynomolgi, 3.16 mg/kg (× 7)",1/1
same,"radical curative activity compared with primaquine, in words",[1]; [8],no more active than primaquine in the Rhesus model as a radical curative drug
same,"radical curative activity compared with primaquine, in words",[1]; [9],not significantly better than that of primaquine
same,ΔMST,"[2]; Table 1, P. berghei, Rane Mouse Test, 80 mg/kg",7.0 days
same,ΔMST,[2]; [10],9 days
same,suppressive activity in words,[2]; [8],active (and non-toxic) in mice at the high dose levels of 320 and 640 mg/kg
same,suppressive activity in words,[2]; [9],not an effective suppressive drug
"COc1cc(NC(C)CCCN)c2nccc(C)c2c1 (centres unmarked) [4-methylprimaquine diphosphate, 4-methylprimaquine]","radical curative activity compared with primaquine, in words",[1],comparable to primaquine and somewhat greater in potentcy; also recorded: slightly more effective than primaquine
same,radical curative activity in words,[1]; 0.316 mg/kg,inactive
same,Cures,[1]; 1.0 mg/kg,100%
same,"Radical Curative Activity, Cures (C)",[1]; [7],0/4
same,"Radical Curative Activity, Cures (C)","[1]; P. cynomolgi, 1.0 mg/kg (× 7)",2/2
same,minimal effective dose,[2]; read-out: active dose (active only at),160 mg/kg
same,minimal effective dose,"[2]; curative only at this toxic dose, read-out: curative dose, suppressive test",640 mg/kg
same,suppressive activity in words,[2],very weak activity at non-toxic dose levels
same,ΔMST,[2]; [10],9 days
same,ΔMST,"[2]; Table 1, P. berghei, Rane Mouse Test, 320 mg/kg",10 days
same,ΔMST,"[2]; Table 4, 160 mg/kg",9 days
same,ΔMST,"[2]; Table 4, 320 mg/kg",10 days
"COc1cc(C)c2c(Oc3cccc(C(F)(F)F)c3)c(OC)cc(NC(C)CCCN)c2n1.O=C(O)CCC(=O)O (centres unmarked) [Compound X, 8-(4-Amino-1-methylbutylamino)-2,6-dimethoxy-4-methyl-5-(3-trifluoromethylphenoxy)quinoline Succinate]",Cures,"[1]; Table 2, P. cynomolgi, Rhesus, 0.0316 mg/kg × 7 of salt",0/2
same,Cures,"[1]; Table 2, P. cynomolgi, Rhesus, 0.10 mg/kg × 7 of salt",2/4
same,Cures,"[1]; Table 2, P. cynomolgi, Rhesus, 0.316 mg/kg × 7 of salt",4/4
same,Cures,"[1]; Table 2, P. cynomolgi, Rhesus, 1.0 mg/kg × 7 of salt",2/2
same,Molar Primaquine Index by Regression Analysis,"[1]; Table 2, ratio of molar ED50, relative to primaquine",12.8
same,Cures (C),"[1]; P. cynomolgi, 0.0316 mg/kg (×7)",0/2
same,Cures (C),"[1]; P. cynomolgi, 0.1 mg/kg (×7)",2/4
same,Cures (C),"[1]; P. cynomolgi, 0.316 mg/kg (×7)",4/4
same,Cures (C),"[1]; P. cynomolgi, 1.0 mg/kg (×7)",2/2
same,"potency relative to primaquine diphosphate, molar basis","[1]; calculated by regression analysis, P. cynomolgi, Rhesus",12.8 times
same,potency relative to Comparative Compound,"[1]; radical curative, P. cynomolgi, Rhesus",approximately two
same,Cures,[3]; 1 mg/kg × 3 of base,2/2
same,Cures,[3]; 4 mg/kg × 3 of base,4/4
same,Cures,[3]; 16 mg/kg × 3 of base,3/3
same,Cures,[3]; 32 mg/kg × 3 of base,1/1
same,blood schizonticidal activity in words,"[3]; Table 3, Succinate",much greater blood schizonticidal activity than primaquine; also recorded: slightly better activity than the Comparative Compound
same,"blood schizonticidal activity in the mouse, in words",[2]; Table 4,blood schizonticidal activity in the mouse similar to the Comparative Compound
same,ΔMST,"[2]; Table 4, 5 mg/kg",4 days
same,ΔMST,"[2]; Table 4, 10 mg/kg",6 days
same,ΔMST,"[2]; Table 4, 20 mg/kg",9 days
same,Cures,[4]; 2.5 mg/kg of salt,0/5
same,Cures,[4]; 10 mg/kg of salt,4/10
same,Cures,[4]; 40 mg/kg of salt,9/10
same,Cures,[4]; 160 mg/kg of salt,5/5
same,prophylactic activity in words,"[4]; Table 5, Succinate",showed prophylactic activity; also recorded: slightly less than that observed with the Comparative Compound
same,"total methemoglobin formation (area under the curve), less than Comparative Compound","[5]; Table 7, 46% less",46%
same,methemoglobin-forming property in words,"[5]; Table 7, Succinate",significantly less toxic in terms of methemoglobinemia
same,peak level of methemoglobin,"[5]; Table 7, equimolar doses",16%
same,methemoglobin-forming property in words,"[5]; Table 7, listed as Compound X succinate, Succinate",much less potent methemoglobin-forming compound than the Comparative Compound
same,"MHb Disappearance Half-Time, individual dogs","[5]; footnote h, data of single dogs of the group, Succinate",5.08 days and 7.71 days and 23.30 days
same,Peak % MHb,[5]; [11],16.0 ± 7.72%
same,Slope of MHb Formation,[5]; [11],0.61 ± 0.10
same,Time of Peak MHb,[5]; [11],6.83 ± 0.72 days
same,MHb Disappearance Half-Time,"[5]; oral capsule, days 0-3, 3 mg/kg primaquine base per day or molar equivalent, no difference in the means",12.03 ± 9.85 days
same,MHb Production as AUC Corrected for Baseline,"[5]; total methemoglobin production, oral capsule, days 0-3, 3 mg/kg primaquine base per day or molar equivalent, means differ significantly (p <.05)","7,887 ± 3,609 mg of MHb/ml of blood/hr"
same,LD50 (95% Confidence Limit),"[6]; female, I.P.",71 (14-114) mg/kg (Salt)
same,LD50 (95% Confidence Limit),"[6]; female, oral",416 (376-449) mg/kg (Salt)
same,LD50 (95% Confidence Limit),"[6]; male, I.P.",102 (25-164) mg/kg (Salt)
same,LD50 (95% Confidence Limit),"[6]; male, oral",429 (320-515) mg/kg (Salt)
same,acute toxicity in words,"[6]; Table 6, orally or intraperitoneally",less toxic than primaquine or the Comparative Compound
COc1cc(NC(C)CCCN)c2nc(Oc3ccc(Cl)cc3)cc(C)c2c1Oc1cccc(C(F)(F)F)c1 (centres unmarked) [Analog 2],Activity in words,"[2]; Table 8, P. berghei",Inactive
same,Toxicity in words,"[2]; Table 8, P. berghei",non-toxic
COc1cc(NC(C)CCCN)c2nc(OCc3ccc(Cl)cc3)cc(C)c2c1Oc1cccc(C(F)(F)F)c1 (centres unmarked) [Analog 3],Activity in words,"[2]; Table 8, P. berghei",Inactive
same,Toxicity in words,"[2]; Table 8, P. berghei",non-toxic
COc1cc(NC(C)CCCN)c2nc(Cl)cc(C)c2c1Oc1cccc(C(F)(F)F)c1 (centres unmarked) [Analog 4],Cures (C),"[1]; P. cynomolgi, 0.1 mg/kg (×7)",0/1
same,Cures (C),"[1]; P. cynomolgi, 0.316 mg/kg (×7)",1/2
same,Cures (C),"[1]; P. cynomolgi, 1.0 mg/kg (×7)",2/2
same,Cures (C),"[2]; Table 8, number of 5 mice, 160 mg/kg",1
COc1cc(NC(C)CCCN)c2nc(O)cc(C)c2c1Oc1cccc(C(F)(F)F)c1 (centres unmarked) [Analog 1],Activity in words,"[2]; Table 8, P. berghei",Inactive
same,Toxicity in words,"[2]; Table 8, P. berghei",non-toxic
